In experiment [1] the test system is HL-60. Kind of experiment: Induction of apoptosis in human HL60 cells assessed as increase in phospho-Bad levels at 4 uM after 12 hrs. Type of experiment: functional, cell-based.
In experiment [2] the test system is HL-60. Kind of experiment: Induction of apoptosis in human HL60 cells assessed as decrease in Bax levels at 4 uM after 12 hrs. The format is functional, cell-based.
For experiment [3], the system named is HL-60. Kind of experiment: Induction of nuclear condensation in human HL60 cells at 4 uM after 24 hrs by Hoechst33342 staining method. The format is functional, cell-based.
For experiment [4], the system named is HL-60. The experiment is described as follows: Induction of DNA fragmentation in human HL60 cells at 4 uM. The format is functional, cell-based. The conditions noted are these: TDE = time-dependent effect.
Experiment [5] concerns HL-60. The experiment is described as follows: Effect on caspase 3 activity in human HL60 cells at 4 uM. The format is functional, cell-based.
Experiment [6] concerns HL-60. Kind of experiment: Effect on caspase 2 activity in human HL60 cells at 4 uM. The format is functional, cell-based.
The test system of experiment [7] is HL-60. The experiment is described as follows: Effect on caspase 8 activity in human HL60 cells at 4 uM. The format is functional, cell-based.
The test system of experiment [8] is HL-60. The experiment is described as follows: Effect on caspase 9 activity in human HL60 cells at 4 uM. The format is functional, cell-based.
Experiment [9] has as its system HL-60. The experiment is described as follows: Induction of cell death in human HL60 cells assessed as formation of autophagosomes at 4 uM after 6 hrs. The format is functional, cell-based.
Experiment [10] has as its system HL-60. The experiment is described as follows: Induction of autophagy in human HL60 cells at 4 uM after 12 hrs by MDC staining. The format is functional, cell-based.
For experiment [11], the system named is HL-60. The experiment is described as follows: Disruption of mitochondrial membrane potential in human HL60 cells at 4 uM after 12 hrs. The format is functional, cell-based.
Experiment [12] has as its system HL-60. Kind of experiment: Increase in JNK protein level in human HL60 cells at 4 uM by Western blot. Type of experiment: functional, cell-based. On the technique in general: Immunoblotting shows a protein as a band on a membrane.
Experiment [13] has as its system HL-60. The experiment is described as follows: Increase in p38 MAPK protein level in human HL60 cells at 4 uM by Western blot. Type of experiment: functional, cell-based.
Experiment [14] relates to HL-60. The experiment is described as follows: Cytotoxicity against human HL60 cells. The format is functional, cell-based.
Experiment [15] relates to HL-60. The experiment is described as follows: Induction of apoptosis in human HL60 cells at 4 uM in presence of 100 uM caspase inhibitor ZVADFMK by Trypan blue exclusion test. Type of experiment: functional, cell-based.
Experiment [16] concerns HL-60. Kind of experiment: Induction of autophagy in human HL60 cells assessed as increase in lipidated microtubule-associated-protein light chain 3 subunit II levels at 4 uM after 3 to 6 hrs. Type of experiment: functional, cell-based.
Experiment [17] concerns HL-60. The experiment is described as follows: Increase in intracellular ROS level in human HL60 cells at 4 uM after 12 hrs. The format is functional, cell-based.
The test system of experiment [18] is HL-60. The experiment is described as follows: Induction of apoptosis in human HL60 cells assessed as increase in phospho-Bcl2 at 4 uM after 12 hrs. The format is functional, cell-based.
Experiment [19] relates to HL-60. Kind of experiment: Induction of apoptosis in human HL60 cells assessed as increase in phospho-Bcl-xl levels at 4 uM after 12 hrs. Type of experiment: functional, cell-based.
For experiment [20], the target named is RAC-alpha serine/threonine-protein kinase (Homo sapiens) (UniProt P31749). The experiment is described as follows: Increase in Akt phosphorylation in human HL60 cells at 4 uM after 48 hrs. The format is cell-based. Particulars: HL-60.
Sequence of RAC-alpha serine/threonine-protein kinase (Homo sapiens) (P31749 whole entry): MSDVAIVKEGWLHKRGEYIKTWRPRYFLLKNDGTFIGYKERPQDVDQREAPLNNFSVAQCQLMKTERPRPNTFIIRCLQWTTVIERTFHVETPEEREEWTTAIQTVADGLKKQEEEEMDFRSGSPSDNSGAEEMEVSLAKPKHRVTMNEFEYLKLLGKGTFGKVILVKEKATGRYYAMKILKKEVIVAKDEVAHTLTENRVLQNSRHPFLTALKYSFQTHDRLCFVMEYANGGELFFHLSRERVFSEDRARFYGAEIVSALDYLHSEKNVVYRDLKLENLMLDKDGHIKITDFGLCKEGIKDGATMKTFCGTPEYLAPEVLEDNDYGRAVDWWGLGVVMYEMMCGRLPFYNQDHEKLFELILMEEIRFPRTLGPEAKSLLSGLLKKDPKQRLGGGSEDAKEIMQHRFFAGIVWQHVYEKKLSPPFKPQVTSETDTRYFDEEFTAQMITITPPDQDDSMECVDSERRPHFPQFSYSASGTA
Experiment [21] has as its system HL-60. Kind of experiment: Induction of autophagy in human HL60 cells at 4 uM in presence of PI3K inhibitor 3-methyladenine. Type of experiment: functional, cell-based.
Experiment [22] has as its system HL-60. The experiment is described as follows: Induction of autophagy in human HL60 cells at 4 uM in presence of PI3K inhibitor LY-294002. Type of experiment: functional, cell-based.

Molecules are shown by their SMILES. Activity calls are given as the source filed them. No cut-off for these calls is given here.

Take `C=C1C(=O)O[C@@H]2/C=C(/C)[C@@H](OC(C)=O)C[C@H]3O[C@]3(C)C[C@@H](OC(=O)/C(=C/C)CO)[C@@H]12` [EUPALININ A]: the outcome with HL-60 [1], with HL-60 [2], in the experiment on HL-60 [3], with HL-60 [5], in the experiment with HL-60 [6] and with HL-60 [7] was Active. For the same compound, the result in the experiment on HL-60 [8], in the experiment on HL-60 [9], in the experiment on HL-60 [10], in the experiment with HL-60 [11], in the experiment on HL-60 [12] and in the experiment on HL-60 [13] was Active. In addition, the outcome (in the experiment with HL-60 [16]; with HL-60 [17]; with HL-60 [18]; in the experiment with HL-60 [19]; in experiment [20]; in the experiment on HL-60 [21]) was Active. In addition, in the experiment with HL-60 [22], the result was Active. For the same compound, the Activity entry with HL-60 [4] is “tde”. In addition, in the experiment with HL-60 [14], the 50% inhibitory concentration (IC50) – broadly, the concentration that gives 50% inhibition – came to 2400 nM. Moreover, in the experiment with HL-60 [15], the outcome was inactive.

For the origin of these results see ChEMBL document CHEMBL1143940, “Eupalinin A isolated from Eupatorium chinense L. induces autophagocytosis in human leukemia HL60 cells” (Bioorg Med Chem, 2008).
